Results published in the supplement of paper PMC10307832.

What was measured:
Test in all cases: relative viability (nuclei count vs DMSO), 5 days (fraction); higher = more cells survive
[1] = compound: COc1cc2nccc(Oc3ccc(NC(=O)C4(C(=O)Nc5ccc(F)cc5)CC4)cc3)c2cc1OC [Cabozantinib] + C[C@]1(O)C[C@@H](c2nc(-c3ccc4ccc(-c5ccccc5)nc4c3)c3c(N)nccn32)C1 [Linsitinib] (partner 1 µM)
How it was run: (§1)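 Medians of duplicate plates are given as relative viability. That measure is the nuclei count in treated wells divided by the count in vehicle wells. Counts were taken on 4× images of lung cancer cell lines in 1536-well plates, 5 days after pin-tool dosing the day after seeding with one drug alone or a fixed anchor-drug dose plus five library-drug doses (not always all listed) in √10 steps.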

Kobe2602 + AZD7762 = compound: C1=CC(=CC=C1NC(=S)NNC2=C(C=C(C=C2[N+](=O)[O-])C(F)(F)F)[N+](=O)[O-])F [Kobe2602] + NC(=O)Nc1cc(-c2cccc(F)c2)sc1C(=O)N[C@H]1CCCNC1 [AZD7762] (partner 0.2 µM)
How it was run: as §1

[2] = compound: COc1cc2nccc(Oc3ccc(NC(=O)C4(C(=O)Nc5ccc(F)cc5)CC4)cc3)c2cc1OC [Cabozantinib] + CC(=O)c1c(C)c2cnc(Nc3ccc(N4CCNCC4)cn3)nc2n(C2CCCC2)c1=O [Palbociclib] (partner 0.5 µM)
How it was run: as §1

Zosuquidar + Palbociclib = compound: O[C@@H](COc1cccc2ncccc12)CN1CCN([C@@H]2c3ccccc3[C@@H]3[C@H](c4ccccc42)C3(F)F)CC1 [Zosuquidar] + CC(=O)c1c(C)c2cnc(Nc3ccc(N4CCNCC4)cn3)nc2n(C2CCCC2)c1=O [Palbociclib] (partner 0.5 µM)
How it was run: as §1

| Cell Line | relative viability ([1]; first compound 0.02 µM) | relative viability ([1]; first compound 0.06325 µM) | relative viability ([1]; first compound 0.2 µM) | relative viability ([1]; first compound 0.6325 µM) | relative viability ([1]; first compound 2 µM) | relative viability (Kobe2602 + AZD7762; first compound 0.2 µM) | relative viability (Kobe2602 + AZD7762; first compound 0.6325 µM) | relative viability (Kobe2602 + AZD7762; first compound 2 µM) | relative viability (Kobe2602 + AZD7762; first compound 6.325 µM) | relative viability (Kobe2602 + AZD7762; first compound 20 µM) | relative viability ([2]; first compound 0.02 µM) | relative viability ([2]; first compound 0.06325 µM) | relative viability ([2]; first compound 0.2 µM) | relative viability ([2]; first compound 0.6325 µM) | relative viability ([2]; first compound 2 µM) | relative viability (Zosuquidar + Palbociclib; first compound 0.01 µM) | relative viability (Zosuquidar + Palbociclib; first compound 0.03162 µM) | relative viability (Zosuquidar + Palbociclib; first compound 0.1 µM) | relative viability (Zosuquidar + Palbociclib; first compound 0.3162 µM) | relative viability (Zosuquidar + Palbociclib; first compound 1 µM) |
| --- | --- | --- | --- | --- | --- | --- | --- | --- | --- | --- | --- | --- | --- | --- | --- | --- | --- | --- | --- | --- |
| NCI-H1355 | 0.827 | 0.855 | 0.799 | 0.806 | 0.697 | 0.744 | 0.7 | 0.744 | 0.676 | 0.815 | 0.423 | 0.448 | 0.389 | 0.371 | 0.379 | 0.417 | 0.397 | 0.404 | 0.308 | 0.412 |
| NCI-H1395 | 1.25 | 1.27 | 1 | 1.13 | 0.958 | 0.35 | 0.428 | 0.406 | 0.422 | 0.406 | 0.631 | 0.79 | 0.626 | 0.642 | 0.54 | 0.596 | 0.664 | – | 0.64 | 0.549 |
| NCI-H1437 | 1.12 | 1.26 | 1.06 | 1.13 | 0.982 | 1.17 | 1.14 | 1.11 | 1.05 | 1.02 | 0.312 | 0.339 | 0.296 | 0.344 | 0.302 | 0.3 | 0.333 | 0.348 | 0.272 | 0.32 |
| NCI-H1651 | 1.06 | 0.969 | 1.06 | 0.958 | 0.733 | 0.442 | 0.447 | 0.462 | 0.41 | 0.429 | 0.512 | 0.561 | 0.52 | 0.495 | 0.495 | 0.509 | 0.537 | 0.489 | 0.508 | 0.511 |
| NCI-H1666 | 1.05 | 0.819 | 0.847 | 0.811 | 0.925 | 0.804 | 0.804 | 0.903 | 0.812 | 0.891 | 0.642 | 0.658 | 0.664 | 0.662 | 0.642 | 0.56 | 0.715 | 0.668 | 0.757 | 0.648 |
| NCI-H1734 | 0.959 | 0.916 | 0.929 | 0.831 | 0.517 | 0.554 | 0.656 | 0.586 | 0.549 | 0.503 | 0.4 | 0.339 | 0.381 | 0.389 | 0.325 | 0.337 | 0.383 | 0.404 | 0.306 | 0.344 |
| NCI-H1755 | 0.982 | 0.967 | 0.965 | 0.841 | 0.834 | 0.416 | 0.446 | 0.642 | 0.407 | 0.544 | 0.471 | 0.454 | 0.461 | 0.43 | 0.446 | 0.47 | 0.461 | 0.464 | 0.441 | 0.454 |
| NCI-H1792 | 0.669 | 0.588 | 0.511 | 0.483 | 0.496 | 0.553 | 0.792 | 0.593 | 0.578 | 0.769 | – | 0.707 | 0.668 | 0.679 | 0.579 | 0.665 | 0.583 | – | 0.673 | 0.703 |
| NCI-H1793 | 1.21 | 1.01 | 0.7 | 0.814 | 0.65 | 0.654 | 0.352 | 0.641 | 0.287 | 0.539 | 0.338 | 0.313 | – | 0.277 | 0.252 | 0.271 | – | – | 0.333 | 0.306 |
| NCI-H1915 | 1.1 | 1.12 | 1.09 | 1.01 | 1.12 | 0.711 | 0.729 | 0.7 | 0.71 | 0.682 | 0.584 | 0.57 | 0.518 | 0.506 | 0.55 | 0.501 | 0.542 | 0.501 | 0.635 | 0.507 |
| NCI-H1944 | – | 1.18 | 1.09 | 1.12 | 1.07 | 0.561 | 0.553 | 0.704 | 0.496 | 0.585 | 0.357 | 0.315 | 0.317 | 0.299 | 0.349 | 0.343 | 0.358 | 0.342 | 0.391 | 0.319 |
| NCI-H1975 | 1 | 1.09 | 0.895 | 0.965 | 0.898 | 0.724 | 0.791 | 0.658 | 0.645 | 0.662 | 0.533 | 0.777 | 0.647 | 0.418 | 0.557 | 0.587 | 0.475 | 0.582 | 0.714 | 0.531 |
| NCI-H1993 | 0.776 | 0.722 | 0.712 | 0.69 | 0.718 | 0.812 | 0.847 | 0.611 | 0.698 | 0.688 | 0.661 | 0.537 | 0.461 | 0.571 | 0.437 | 0.653 | 0.603 | – | 0.617 | 0.615 |
| NCI-H2085 | 0.93 | 0.868 | 0.918 | 0.847 | 0.875 | 0.931 | 1.01 | 0.986 | 0.87 | 0.943 | 0.519 | 0.469 | 0.524 | 0.476 | 0.498 | 0.5 | 0.469 | – | 0.508 | 0.484 |
| NCI-H2087 | 1.03 | 1 | 1.06 | 1.02 | 1 | 1.24 | 1.22 | 1.22 | 1.32 | 1.13 | 0.187 | 0.302 | 0.273 | 0.249 | 0.253 | 0.19 | 0.25 | 0.243 | 0.205 | 0.249 |
